Measured values from article PMC3496871 (Molecular bioSystems, 2012).
Entries after “also recorded” stand apart in the source; their conditions may differ.

Legend:
[1] = test system: NC[C@@H]1O[C@H](O[C@H]2[C@@H](O)[C@H](O[C@@H]3[C@@H](O)[C@H](N)C[C@H](N)[C@H]3O[C@H]3O[C@H](CO)[C@@H](O)[C@H](O)[C@H]3N)O[C@@H]2CO)[C@H](N)[C@@H](O)[C@@H]1O; test: purified protein, by the assay type; type: biochemical, Anabaena variabilis; conditions: other: Eis_Ava […], 500 μM AcCoA, apparent, pH 7.5
[2] = test system: NC[C@H]1O[C@H](O[C@H]2[C@H](O)[C@@H](O)[C@H](N)C[C@@H]2N)[C@H](N)[C@@H](O)[C@@H]1O; test: purified protein, by the assay type; type: biochemical, Anabaena variabilis; conditions: other: Eis_Ava […], 500 μM AcCoA, apparent, pH 7.5
[3] = test system: NC[C@@H]1O[C@H](O[C@H]2[C@@H](O)[C@H](O[C@@H]3[C@@H](O)[C@H](N)C[C@H](N)[C@H]3O[C@H]3O[C@H](CN)[C@@H](O)[C@H](O)[C@H]3N)O[C@@H]2CO)[C@H](N)[C@@H](O)[C@@H]1O; test: purified protein, by the assay type; type: biochemical, Anabaena variabilis; conditions: other: Eis_Ava […], 500 μM AcCoA, apparent, pH 7.5
[4] = test system: CN[C@@H]1[C@@H](O[C@H]2O[C@H](CO)[C@@H](N)[C@H](O)[C@H]2O)OC2C[C@@H](N)[C@@H](O[C@H]3[C@H](O)[C@@H](O)[C@H](N)C[C@@H]3N)OC2[C@@H]1O; test: purified protein, by the assay type; type: biochemical, Anabaena variabilis; conditions: other: Eis_Ava […], 500 μM AcCoA, apparent, pH 7.5
[5] = test system: NC[C@@H]1O[C@H](O[C@H]2[C@@H](O)[C@H](O[C@@H]3[C@@H](O)[C@H](N)C[C@H](N)[C@H]3O[C@H]3O[C@H](CO)[C@@H](O)[C@H](O)[C@H]3N)O[C@@H]2CO)[C@H](N)[C@@H](O)[C@@H]1O; test: purified protein, by the assay type; type: biochemical, Mycobacterium smegmatis; conditions: other: Eis_Msm […], 500 μM AcCoA, apparent, pH 7.5
[6] = test system: NC[C@H]1O[C@H](O[C@H]2[C@H](O)[C@@H](O)[C@H](N)C[C@@H]2N)[C@H](N)[C@@H](O)[C@@H]1O; test: purified protein, by the assay type; type: biochemical, Mycobacterium smegmatis; conditions: other: Eis_Msm […], 500 μM AcCoA, apparent, pH 7.5
[7] = test system: NC[C@@H]1O[C@H](O[C@H]2[C@@H](O)[C@H](O[C@@H]3[C@@H](O)[C@H](N)C[C@H](N)[C@H]3O[C@H]3O[C@H](CN)[C@@H](O)[C@H](O)[C@H]3N)O[C@@H]2CO)[C@H](N)[C@@H](O)[C@@H]1O; test: purified protein, by the assay type; type: biochemical, Mycobacterium smegmatis; conditions: other: Eis_Msm […], 500 μM AcCoA, apparent, pH 7.5
[8] = test system: CN[C@@H]1[C@@H](O[C@H]2O[C@H](CO)[C@@H](N)[C@H](O)[C@H]2O)OC2C[C@@H](N)[C@@H](O[C@H]3[C@H](O)[C@@H](O)[C@H](N)C[C@@H]3N)OC2[C@@H]1O; test: purified protein, by the assay type; type: biochemical, Mycobacterium smegmatis; conditions: other: Eis_Msm […], 500 μM AcCoA, apparent, pH 7.5
Eis_Ava [9] = target: T1, Eis_Ava (Trichormus variabilis (Anabaena variabilis), UniProt Q3M362); test: Number of acetylations of AGs by Eis_Ava; type: biochemical; conditions: mass spectrometry; AG 0.67 mM, AcCoA 6.7 mM, Eis_Ava 10 μM, overnight at rt
Eis_Mtb [10] = target: T2, Eis_Mtb (Mycobacterium tuberculosis, UniProt P9WFK7); conditions: cited from earlier work
Eis_Msm [11] = conditions: cited from earlier work
[12] = test system: NC[C@H]1O[C@H](O[C@H]2[C@H](O)[C@@H](O)[C@H](N)C[C@@H]2N)[C@H](N)[C@@H](O)[C@@H]1O; test: purified protein, by the assay type; type: biochemical, Mycobacterium tuberculosis; conditions: other: Eis_Mtb […], 500 μM AcCoA, apparent, pH 7.5
Eis_Mtb [13] = target: T2, Eis_Mtb; type: biochemical; conditions: 500 μM AcCoA, apparent
Eis_Mtb [14] = target: T2, Eis_Mtb; conditions: transfer onto a few AGs; cited from earlier work
Eis_Ava [15] = target: T1, Eis_Ava; test: Acyl-CoA cosubstrate profile of Eis_Ava; type: biochemical; conditions: 6 acyl-CoA cosubstrates tested
Eis_Ava [16] = target: T1, Eis_Ava; test: biochemical; type: biochemical
Eis_Ava [17] = test: biochemical; type: biochemical
Eis_Msm [18] = target: T3, Eis_Msm (Mycolicibacterium smegmatis, UniProt A0QY29); type: biochemical; conditions: read-out: IC50 Eis_Msm; NEO acetylation
Eis_Mtb [19] = target: T2, Eis_Mtb; type: biochemical; conditions: AG 0.1 mM, AcCoA 0.5 mM, Eis 0.5 μM
Eis_Ava [20] = target: T1, Eis_Ava; test: UV-Vis assay of Eis_Ava activity against KAN and 6′-glycinyl-KAN; conditions: AG 0.1 mM, AcCoA 0.5 mM, Eis 0.5 μM
Eis_Msm [21] = target: T3, Eis_Msm; test: UV-Vis assay of Eis_Msm activity against KAN and 6′-glycinyl-KAN; conditions: AG 0.1 mM, AcCoA 0.5 mM, Eis 0.5 μM
Eis_Ava [22] = target: T1, Eis_Ava; test: Regio-specificity of NEA acetylation by Eis_Ava; type: biochemical

T2 sequence (P9WFK7 whole entry): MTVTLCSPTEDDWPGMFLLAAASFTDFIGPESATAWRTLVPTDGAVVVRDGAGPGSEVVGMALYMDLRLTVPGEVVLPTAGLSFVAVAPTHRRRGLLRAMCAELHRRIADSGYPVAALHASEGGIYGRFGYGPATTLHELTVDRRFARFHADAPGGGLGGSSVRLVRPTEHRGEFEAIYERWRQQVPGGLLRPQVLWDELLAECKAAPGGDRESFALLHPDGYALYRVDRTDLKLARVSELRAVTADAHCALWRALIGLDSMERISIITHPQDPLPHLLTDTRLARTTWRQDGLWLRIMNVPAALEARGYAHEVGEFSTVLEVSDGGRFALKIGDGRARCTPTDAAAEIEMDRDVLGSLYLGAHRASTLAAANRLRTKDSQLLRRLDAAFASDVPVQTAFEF

Q: Which results are given for “Eis_Ava (Trichormus variabilis ATCC 29413)”?
A: Km [1]: 237 ± 36 µM; kcat [1]: 0.183 ± 0.013 s⁻¹; kcat/Km [1]: 773 ± 132 M⁻¹ s⁻¹; Km [2]: 42 ± 9 µM; kcat [2]: 0.352 ± 0.021 s⁻¹; kcat/Km [2]: 7410 ± 1940 M⁻¹ s⁻¹; Km [3]: 101 ± 16 µM; kcat [3]: 0.106 ± 0.006 s⁻¹; kcat/Km [3]: 1050 ± 184 M⁻¹ s⁻¹; Km [4]: 337 ± 98 µM; kcat [4]: 0.019 ± 0.002 s⁻¹; kcat/Km [4]: 57 ± 18 M⁻¹ s⁻¹

Q: With “Eis_Msm (Mycolicibacterium smegmatis MC2 155)” as the compound, how does the Km [5] read?
A: 738 ± 158 µM

Q: What about the kcat [5] of the same compound?
A: 0.235 ± 0.033 s⁻¹

Q: What about the kcat/Km [5] of the same compound?
A: 318 ± 82 M⁻¹ s⁻¹

Q: What about the Km [6] of the same compound?
A: 1302 ± 312 µM

Q: What about the kcat [6] of the same compound?
A: 0.687 ± 0.083 s⁻¹

Q: And the kcat/Km [6]?
A: 528 ± 142 M⁻¹ s⁻¹

Q: And the Km [7]?
A: 110 ± 14 µM

Q: What about the kcat [7] of the same compound?
A: 0.148 ± 0.006 s⁻¹

Q: And the kcat/Km [7]?
A: 1340 ± 180 M⁻¹ s⁻¹

Q: What about the Km [8] of the same compound?
A: 150 ± 43 µM

Q: What about the kcat [8] of the same compound?
A: 0.019 ± 0.002 s⁻¹

Q: What about the kcat/Km [8] of the same compound?
A: 127 ± 39 M⁻¹ s⁻¹

Q: With `CN[C@@H]1[C@@H](O[C@H]2O[C@H](CO)[C@@H](N)[C@H](O)[C@H]2O)OC2C[C@@H](N)[C@@H](O[C@H]3[C@H](O)[C@@H](O)[C@H](N)C[C@@H]3N)OC2[C@@H]1O` (stereo partly shown) [APR, apramycin] as the compound, how does the “number of acetylations by Eis_Ava” value (Eis_Ava [9]) read?
A: mono-acetylated

Q: And the “substrate of Eis_Mtb” value (Eis_Mtb [10])?
A: not be a substrate

Q: And the “number of acetylations by Eis_Msm” value (Eis_Msm [11])?
A: Di-acetylation

Q: With “Eis_Mtb (Mycobacterium tuberculosis H37Rv)” as the compound, how does the Km [12] read?
A: 1315 ± 492 µM

Q: And the kcat [12]?
A: 0.699 ± 0.136 s⁻¹

Q: What about the kcat/Km [12] of the same compound?
A: 532 ± 224 M⁻¹ s⁻¹

Q: With `NC[C@@H]1O[C@H](O[C@H]2[C@@H](O)[C@H](O[C@@H]3[C@@H](O)[C@H](N)C[C@H](N)[C@H]3O[C@H]3O[C@H](CO)[C@@H](O)[C@H](O)[C@H]3N)O[C@@H]2CO)[C@H](N)[C@@H](O)[C@@H]1O` [PAR, paromomycin] as the compound, how does the “number of acetylations by Eis_Ava” value (Eis_Ava [9]) read?
A: tri-acetylation

Q: And the Km (Eis_Mtb [13])?
A: 110 ± 21 µM

Q: And the kcat (Eis_Mtb [13])?
A: 0.136 ± 0.012 s⁻¹

Q: And the “number of acetylations by Eis_Mtb” value (Eis_Mtb [10])?
A: di-acetylation

Q: What about the “number of acetylations by Eis_Msm” value (Eis_Msm [11]) of the same compound?
A: tri-acetylation

Q: For `CC(=O)SCCNC(=O)CCNC(=O)[C@H](O)C(C)(C)COP(=O)(O)OP(=O)(O)OC[C@H]1O[C@@H](n2cnc3c(N)ncnc32)[C@H](O)[C@@H]1OP(=O)(O)O` [AcCoA], which “acceptance as cosubstrate by Eis_Mtb” value (Eis_Mtb [14]) is on record?
A: efficiently accepting

Q: What about the “acceptance as cosubstrate by Eis_Ava” value (Eis_Ava [15]) of the same compound?
A: accepted

Q: For `[H]/N=C(\N/C(=N/[H])NCCCCCCNC(=N)NC(=N)Nc1ccc(Cl)cc1)Nc1ccc(Cl)cc1` [compound 1, chlorhexidine], which IC50 (Eis_Ava [16]) is on record?
A: 20 ± 7 µM

Q: And the “IC50 for Eis_Ava fold higher than against Eis_Msm” value (Eis_Ava [17])?
A: 11 fold

Q: What about the “IC50 for Eis_Ava fold higher than for Eis_Mtb” value (Eis_Ava [17]) of the same compound?
A: 107 fold

Q: And the IC50 (Eis_Msm [18])?
A: 1.85 ± 0.39 µM

Q: Which “acceptance as cosubstrate by Eis_Mtb” value (Eis_Mtb [14]) does the source give for `C/C=C/C(=O)SCCNC(=O)CCNC(=O)[C@H](O)C(C)(C)COP(=O)(O)OP(=O)(O)OC[C@H]1O[C@@H](n2cnc3c(N)ncnc32)[C@H](O)[C@@H]1OP(=O)(O)O` [crotonyl-CoA] here?
A: moderately so

Q: Which “number of acetylations by Eis_Ava” value (Eis_Ava [9]) does the source give for `[H]/N=C(/N)N[C@H]1[C@H](O)[C@@H](O)[C@H](O[C@@H]2O[C@@H](C)[C@](O)(C=O)[C@H]2O[C@@H]2O[C@@H](CO)[C@H](O)[C@@H](O)[C@@H]2NC)[C@@H](N/C(N)=N\[H])[C@@H]1O` [STR, streptomycin] here?
A: not be substrates

Q: For `NCC(=O)NCC1OC(OC2C(N)CC(N)C(OC3OC(CO)C(O)C(N)C3O)C2O)C(O)C(O)C1O` (stereo not shown) [6′-glycinyl-KAN], which “acetylation by Eis_Mtb (UV-Vis)” value (Eis_Mtb [19]) is on record?
A: not a substrate; also recorded: almost inactive

Q: What about the “acetylation by Eis_Ava (UV-Vis)” value (Eis_Ava [20]) of the same compound?
A: not a substrate; also recorded: almost inactive

Q: And the “acetylation by Eis_Msm (UV-Vis)” value (Eis_Msm [21])?
A: not a substrate; also recorded: almost inactive

Q: Which results are given for kanamycin A?
A: acetylation by Eis_Mtb (UV-Vis) (Eis_Mtb [19]): efficiently gets multi-acetylated; acetylation by Eis_Ava (UV-Vis) (Eis_Ava [20]): efficiently gets multi-acetylated; acetylation by Eis_Msm (UV-Vis) (Eis_Msm [21]): efficiently gets multi-acetylated

Q: With `CC(C)(COP(=O)(O)OP(=O)(O)OC[C@H]1O[C@@H](n2cnc3c(N)ncnc32)[C@H](O)[C@@H]1OP(=O)(O)O)[C@@H](O)C(=O)NCCC(=O)NCCSC(=O)CC(=O)O` [malonyl-CoA] as the compound, how does the “acceptance as cosubstrate by Eis_Mtb” value (Eis_Mtb [14]) read?
A: moderately so

Q: For `CCC(=O)SCCNC(=O)CCNC(=O)[C@H](O)C(C)(C)COP(=O)(O)OP(=O)(O)OC[C@H]1O[C@@H](n2cnc3c(N)ncnc32)[C@H](O)[C@@H]1OP(=O)(O)O` [n-propionyl-CoA], which “acceptance as cosubstrate by Eis_Mtb” value (Eis_Mtb [14]) is on record?
A: efficiently accepting

Q: And the “acceptance as cosubstrate by Eis_Ava” value (Eis_Ava [15])?
A: accepted

Q: With `NC[C@H]1O[C@H](O[C@H]2[C@H](O)[C@@H](O)[C@H](N)C[C@@H]2N)[C@H](N)[C@@H](O)[C@@H]1O` [NEA, neamine] as the compound, how does the “positions sequentially acetylated by Eis_Mtb” value (Eis_Mtb [10]) read?
A: 2′-, 6′-, and 1-position

Q: And the “number of acetylations of NEA by Eis_Ava observed by TLC and NMR” value (Eis_Ava [22])?
A: di-acetylation

Q: What about the “first position acetylated by Eis_Ava” value (Eis_Ava [22]; TLC and NMR) of the same compound?
A: 2′-position

Q: What about the “second site modified by Eis_Ava” value (Eis_Ava [22]; TLC and NMR) of the same compound?
A: 1-position

Q: And the “positions sequentially acetylated by Eis_Msm” value (Eis_Msm [11])?
A: 2′-, 6′-, and 1-position

Q: For `CN[C@@H]1[C@H](O)[C@H](NC)[C@H]2O[C@@]3(O)C(=O)C[C@@H](C)O[C@H]3O[C@@H]2[C@H]1O` [SPT, spectinomycin], which “number of acetylations by Eis_Ava” value (Eis_Ava [9]) is on record?
A: not be substrates
